Source: US11433053B2, “LSD1 inhibitor and preparation method and application thereof” (CSPC ZHONGQI PHARMACEUTICAL TECHNOLOGY (SHIJIAZHUANG) CO., …, priority 2017, dated 2022)

What was measured:
[1] = test system: human small cell lung cancer NCI-H1417 cells subcutaneous xenograft tumor; test: In vivo pharmacodynamic study, NCI-H1417 subcutaneous xenograft tumor CB-17 SCID mouse model; set-up: species or system CB-17 SCID mice; conditions: PO, QD
Description: The purpose of this experiment was to investigate the efficacy of some of the compounds of the present invention in the in vivo xenograft tumor of human small cell lung cancer NCI-H1417 cells in a CB-17 SCID mouse model.
Week age and weight: 6-8 weeks old, weight 18-23 g
Human small cell lung cancer NCI-H1417 cells were cultured in vitro in a single layer cultured in RPMI-1640 medium (Sigma-aldrich, R0883), supplemented with 10% fetal bovine serum and cultured at 37° C. 5% CO2. When the cell saturation is 80%-90%. The cells are harvested, counted, and inoculated.
0.2 mL of 10×10^6 (NCI-H1417 cells were subcutaneously inoculated into the right back of each mouse (PBS:Matrigel=1:1). After 21 days of tumor inoculation, group administration was started when the average volume reached 107 mm^3.
The experimental solvent was the 10% hydroxypropyl-β-cyclodextrin solution. The preparation method was as follows: 100 g of hydroxypropyl-β-cyclodextrin was weighed into a 1000 mL jar, 800 mL of ultrapure water was added, stirred overnight until completely dissolved, and then made up to 1000 mL. The test substance was dissolved in a solvent, and was prepared into a uniform solution of a certain concentration and stored at 4° C.
The experimental indicator is to investigate whether tumor growth is inhibited, delayed or cured. Tumor diameters were measured twice a week using vernier calipers. The tumor volume is calculated as: V=0.5a×b^2, and a and b represent the long and short diameters of the tumor, respectively.
The antitumor effect of the compound was evaluated by TG (%). TGI (%), reflecting the tumor growth inhibition rate. TGI (%) calculation: TGI (%)=[1−(the average tumor volume at the end of a treatment group−the average tumor volume at the beginning of the treatment group)/(the average tumor volume at the end of the treatment of the solvent control group−The average tumor volume at the start of treatment in the solvent control group) was ×100%. Solvent control: Vehicle (10% hydroxypropyl-β-cyclodextrin solution).

[2] = Pharmacokinetic evaluation in C57BL/6 mice after intravenous and oral administration; assay type: in vivo; conditions: male, mouse, plasma; for Cmax / clearance / half-life / Vd: IV 1 mg/kg; for Cmax: oral 2 mg/kg, route of Cmax not stated, read-out: max concentration Cmax; for clearance: read-out: clearance CL; for half-life: read-out: half-life T1/2 (IV, h) (converted); for Vd: read-out: volumes of distribution Vdss; for bioavailability: PO 2 mg/kg vs IV 1 mg/kg, read-out: bioavailability F (%); for AUC(0-t): PO 2 mg/kg, read-out: the area under the plasma concentration-time curve AUC0-last PO
Description: Experimental purposes: To test the pharmacokinetics of compounds in C57BL/6 mice
C57BL/6 mice (male, 7-9 weeks old, Shanghai Slack)
Test the pharmacokinetics characteristics of rodents after intravenous and oral administration in accordance with standard protocols, and the candidate compound was formulated into a clear solution in the experiment. The mice were administered by intravenous injection and orally once. The intravenous and oral vehicle is a 10% aqueous solution of hydroxypropyl β-cyclodextrin or a physiological saline solution. Six male C57BL/6 mice were employed in this assay, three of them were administered intravenously at a dose of 1 mg/kg, plasma samples were collected at 0 h (before administration) and 0.0833, 0.25, 0.5, 1, 2, 4, 7, 24 h after administration. Another three mice were administered by oral gavage at a dose of 2 mg/kg, plasma samples were collected at 0 h (before administration) and 0.5, 1, 2, 3, 4, 6, 24 h after administration. Collect whole blood samples within 24 hours, centrifuge at 3000 g for 15 minutes, separate the supernatant to obtain a plasma sample, 4 times volume of the internal standard acetonitrile solution was added to precipitate the protein. Centrifuge the supernatant and add an equal volume of water and centrifuge to take the supernatant. LC-MS/MS was used to quantitatively analyze plasma concentrations and calculate pharmacokinetic parameters such as max concentration (Cmax), clearance (CL), half-life (T1/2), volumes of distribution (Vdss), the area under the plasma concentration-time curve (AUC0-last), bioavailability (F), etc.

H1417 cells = test: Cell proliferation inhibitory activity on H1417 cells (CellTiter-Glo, 10 days); assay type: cell-based, human; conditions: Homo sapiens; for IC50: NCI-H1417, 240 h, H1417 cells, 10 days incubation; for Emax: NCI-H1417, H1417 cells, highest percentage inhibition of cell viability, read-out: Maximum inhibition percentage (%)
In short: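 H1417 cells in RPMI 1640 with fetal bovine serum were treated with 10-point 3-fold compound dilutions for 10 days. Viability was read by CellTiter-Glo luminescence. IC50 came from a four-parameter fit of percent inhibition, and maximal inhibition was also categorized.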

human LSD1 = human LSD1 (Homo sapiens (Human), UniProt O60341); test: Evaluation of enzyme activity: LSD1 fluorescence coupling enzyme assay (HRP/Amplex Red); assay type: biochemical; conditions: human LSD1, histone H3(1-21)K4me2 peptide 10 μM, 30 min pre-incubation
In short: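 Human LSD1 preincubated 30 min with compound, then reacted with H3(1-21)K4me2 peptide (10 μM). FAD-dependent H2O2 detected via HRP/Amplex Red fluorescence (Ex/Em 535/590). Ten-dose, 3-fold dilutions in duplicate from 10 μM gave IC50s, binned into activity classes.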

[3] = 1.5 mg/kg, day 27 after administration
[4] = 1.5 mg/kg, day 28 after administration
[5] = 5 mg/kg, day 28 after administration

Cmax [2] [ng/mL]	clearance [2] [mL/min/kg]	half-life [2] [h]	Vd [2] [L/kg]	bioavailability [2] [%]	AUC(0-t) [2] [µM·h]	IC50 (H1417 cells) [µM]	IC50 (human LSD1) [µM]	SMILES	TGI (%) [1, 3] [%]	Tumor volume (mm^3) (Day 27) [1, 3]	Emax (H1417 cells) [%]	TGI (%) [1, 4] [%]	Tumor volume (mm^3) (Day 28) [1, 4]	TGI (%) [1, 5] [%]	Tumor volume (mm^3) (Day 28) [1, 5]
25.3	92	4.5	28.5	21.5	0.17	0.1 to 0.5	≤ 0.05	N[C@H]1CC[C@H](c2nc(C3(CN[C@@H]4C[C@H]4c4ccccc4)CC3)no2)CC1 [Example 144]	83.5	180 ± 21	90 to 100				
11.9	108	11.7	81.8	9.1	0.0654	0.1 to 0.5	≤ 0.05	N[C@H]1CC[C@@H](c2nc(C3(CN[C@@H]4C[C@H]4c4ccccc4)CC3)no2)CC1 [Example 145]	66.6	250 ± 40	70 to 90				
49.5	104	2.4	20.9	36.7	0.271	≤ 0.1	≤ 0.05	N[C@H]1CC[C@H](c2cc(C3(CN[C@@H]4C[C@H]4c4ccccc4)CC3)no2)CC1 [Example 241]			70 to 90	66	251 ± 35	110	61 ± 10
